Reference: patent publication US9409966B2, “Glucagon-like peptide-1 derivatives and their pharmaceutical use” (priority 2007, dated 2016)
*1 amine or outer side, *2 acyl side, *3 side chain or, on linkers, in order; H or OH if unused. Where a SMILES comes first, the peptide text is derived from it. Side-chain parts run from the residue outwards. [ ]: non-standard residue; d: D form. The star is where a group is joined. C18 diacid = O=C(O)CCCCCCCCCCCCCCCCC(=O)*; γGlu = O=C(O)[C@H](CCC(=O)[*:2])N[*:1]; Palmitoyl = CCCCCCCCCCCCCCCC(=O)*; AEEA = NCCOCCOCC(=O)O; Aib = CC(C)(N)C(=O)O

Columns and labels:
human GLP-1 receptor = target: T1, human GLP-1 receptor (Homo sapiens, UniProt P43220); experiment: Stimulation of cAMP formation in a cell line expressing the cloned human GLP-1 receptor; format: biochemical; conditions: cAMP production, purified plasma membranes from BHK467-12A (tk-ts13), AlphaScreen cAMP Assay Kit; read-out: Potency [EC50/nM]
T1 construct: expressed in transfected cells; host or cells: BHK467-12A (tk-ts13) baby hamster kidney cells; purified plasma membranes
T1 sequence (P43220 24-463): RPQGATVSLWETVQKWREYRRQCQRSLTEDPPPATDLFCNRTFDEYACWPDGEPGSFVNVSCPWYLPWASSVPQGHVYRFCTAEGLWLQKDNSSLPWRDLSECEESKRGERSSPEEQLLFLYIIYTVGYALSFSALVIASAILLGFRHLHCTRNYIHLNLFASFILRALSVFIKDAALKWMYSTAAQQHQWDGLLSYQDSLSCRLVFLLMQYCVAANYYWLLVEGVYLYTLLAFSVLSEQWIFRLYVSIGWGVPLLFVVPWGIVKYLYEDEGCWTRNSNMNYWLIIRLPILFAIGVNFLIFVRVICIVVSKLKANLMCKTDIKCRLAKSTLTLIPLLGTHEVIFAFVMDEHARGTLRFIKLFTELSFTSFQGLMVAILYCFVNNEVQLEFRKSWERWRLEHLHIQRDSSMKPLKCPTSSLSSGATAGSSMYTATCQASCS

[1] = target: human serum albumin (HSA) (Homo sapiens, UniProt P02768); experiment: Albumin binding affinity, competition scintillation proximity assay (SPA)
human serum albumin (HSA), sequence (P02768 25-609): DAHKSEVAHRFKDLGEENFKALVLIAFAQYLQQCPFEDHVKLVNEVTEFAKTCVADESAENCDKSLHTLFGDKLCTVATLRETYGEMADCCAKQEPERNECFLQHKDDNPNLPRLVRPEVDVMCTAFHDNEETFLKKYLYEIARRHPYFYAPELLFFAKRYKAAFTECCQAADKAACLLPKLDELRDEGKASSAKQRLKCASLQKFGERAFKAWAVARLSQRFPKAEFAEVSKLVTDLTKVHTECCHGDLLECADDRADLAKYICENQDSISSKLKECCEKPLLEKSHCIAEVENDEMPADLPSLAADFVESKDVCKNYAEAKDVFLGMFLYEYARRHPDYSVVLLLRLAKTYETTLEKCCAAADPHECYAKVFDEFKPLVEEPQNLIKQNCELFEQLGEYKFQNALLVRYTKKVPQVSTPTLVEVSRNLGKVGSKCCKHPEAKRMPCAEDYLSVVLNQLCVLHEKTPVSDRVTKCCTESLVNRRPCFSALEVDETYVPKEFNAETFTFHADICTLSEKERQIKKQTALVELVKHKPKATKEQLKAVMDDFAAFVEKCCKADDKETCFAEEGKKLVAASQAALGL
Method: Streptavidin-SPA beads (GE Healthcare RPNQ0009) were incubated with biotinylated HSA for 5 hours. The beads were washed with buffer to remove unbound HSA. […] After 20 hours of gentle rocking at room temperature the plates were centrifuged and counted on a TopCounter.

EC50 (human GLP-1 receptor) [nM]	EC50 [1] [nM]	Compound
1.27	> 2000	CC[C@H](C)[C@H](NC(=O)[C@H](Cc1ccccc1)NC(=O)[C@H](CCC(=O)O)NC(=O)[C@H](CCCNC(=N)N)NC(=O)[C@H](C)NC(=O)[C@H](C)NC(=O)[C@H](CCC(N)=O)NC(=O)[C@H](CCC(=O)O)NC(=O)[C@H](CCC(=O)O)NC(=O)[C@H](CC(C)C)NC(=O)[C@H](Cc1ccc(O)cc1)NC(=O)[C@H](CO)NC(=O)[C@H](CO)NC(=O)[C@@H](NC(=O)[C@H](CC(=O)O)NC(=O)[C@H](CO)NC(=O)[C@@H](NC(=O)[C@H](Cc1ccccc1)NC(=O)[C@@H](NC(=O)CNC(=O)[C@H](CCC(=O)O)NC(=O)[C@H](C)NC(=O)CCc1c[nH]cn1)[C@@H](C)O)[C@@H](C)O)C(C)C)C(=O)N[C@@H](C)C(=O)N[C@@H](Cc1c[nH]c2ccccc12)C(=O)N[C@@H](CC(C)C)C(=O)N[C@H](C(=O)N[C@@H](CCCNC(=N)N)C(=O)NCC(=O)N[C@@H](CCCNC(=N)N)C(=O)N[C@@H](CCCCNC(=O)CCCS(=O)(=O)NC(=O)CCCCCCCCCCCCCCCc1nnn[nH]1)C(N)=O)C(C)C [Example 21, N-epsilon37-[4-(16-(1H-Tetrazol-5-yl)hexadecanoylsulfamoyl)butyryl][DesaminoHis7,Glu22,Arg26,Arg34,Lys37]GLP-1-(7-37)amide]
1.27	> 2000	CC[C@H](C)[C@H](NC(=O)[C@H](Cc1ccccc1)NC(=O)[C@H](CCC(=O)O)NC(=O)[C@H](CCCNC(=N)N)NC(=O)[C@@H](NC(=O)[C@H](C)NC(=O)[C@H](CCC(N)=O)NC(=O)[C@H](CCC(=O)O)NC(=O)[C@H](CCC(=O)O)NC(=O)[C@H](CCCCN)NC(=O)[C@H](Cc1ccc(O)cc1)NC(=O)[C@H](CO)NC(=O)[C@H](CO)NC(=O)[C@@H](NC(=O)[C@H](CC(=O)O)NC(=O)[C@H](CO)NC(=O)[C@@H](NC(=O)[C@H](Cc1ccccc1)NC(=O)[C@@H](NC(=O)CNC(=O)[C@H](CCC(=O)O)NC(=O)C(C)(C)NC(=O)[C@@H](N)Cc1c[nH]cn1)[C@@H](C)O)[C@@H](C)O)C(C)C)C(C)C)C(=O)N[C@@H](C)C(=O)N[C@@H](CCCCNC(=O)COCCOCCNC(=O)COCCOCCNC(=O)CC[C@H](NC(=O)CCCCCCCCCCCCCCCCC(=O)O)C(=O)O)C(=O)N[C@@H](CC(C)C)C(=O)N[C@H](C(=O)N[C@@H](CCCNC(=N)N)C(=O)N[C@@H](CCCNC(=N)N)C(=O)N[C@@H](CCCNC(=N)N)C(=O)N[C@@H](CCCNC(=N)N)C(=O)O)C(C)C [Example 34, N-epsilon31-[2-(2-{2-[2-(2-{2-[(S)-4-Carboxy-4-(17-carboxyheptadecanoylamino)butyrylamino]ethoxy}ethoxy)acetylamino]ethoxy}ethoxy)acetyl][Aib8,Glu22,Val25,Arg26,Lys31,Arg34,Arg35,Arg37]GLP-1-(7-37)] (H-H[Aib]EGTFTSDVSSYKEEQAVREFIAK([AEEA-AEEA-γGlu-C18 diacid])LVRRRR-OH)
0.74	800 to 1500	CC[C@H](C)[C@H](NC(=O)[C@H](Cc1ccccc1)NC(=O)[C@H](CCC(=O)O)NC(=O)[C@H](CCCNC(=N)N)NC(=O)[C@@H](NC(=O)[C@H](C)NC(=O)[C@H](CCC(N)=O)NC(=O)[C@H](CCC(=O)O)NC(=O)[C@H](CCC(=O)O)NC(=O)[C@H](CCCCN)NC(=O)[C@H](Cc1ccc(O)cc1)NC(=O)[C@H](CO)NC(=O)[C@H](CO)NC(=O)[C@@H](NC(=O)[C@H](CC(=O)O)NC(=O)[C@H](CO)NC(=O)[C@@H](NC(=O)[C@H](Cc1ccccc1)NC(=O)[C@@H](NC(=O)CNC(=O)[C@H](CCC(=O)O)NC(=O)C(C)(C)NC(=O)[C@@H](N)Cc1c[nH]cn1)[C@@H](C)O)[C@@H](C)O)C(C)C)C(C)C)C(=O)N[C@@H](C)C(=O)N[C@@H](CCCCNC(=O)COCCOCCNC(=O)COCCOCCNC(=O)CC[C@H](NC(=O)CCCCCCCCCCCCCCCCC(=O)O)C(=O)O)C(=O)N[C@@H](CC(C)C)C(=O)N[C@H](C(=O)N[C@@H](CCCNC(=N)N)C(=O)N[C@@H](CCCNC(=N)N)C(=O)N[C@@H](CCCNC(=N)N)C(=O)N[C@@H](CCCNC(=N)N)C(=O)N[C@@H](CCCNC(=N)N)C(=O)N[C@@H](CCCNC(=N)N)C(=O)N[C@@H](CCCNC(=N)N)C(=O)N[C@@H](CCCNC(=N)N)C(=O)O)C(C)C [Example 35] (H-H[Aib]EGTFTSDVSSYKEEQAVREFIAK([AEEA-AEEA-γGlu-C18 diacid])LVRRRRRRRR-OH)
0.05	100 to 150	CC[C@H](C)[C@H](NC(=O)[C@H](Cc1ccccc1)NC(=O)[C@H](CCC(=O)O)NC(=O)[C@H](CCCNC(=N)N)NC(=O)[C@H](C)NC(=O)[C@H](C)NC(=O)[C@H](CCC(N)=O)NC(=O)[C@H](CCC(=O)O)NC(=O)[C@H](CCC(=O)O)NC(=O)[C@H](CC(C)C)NC(=O)[C@H](Cc1ccc(O)cc1)NC(=O)[C@H](CO)NC(=O)[C@H](CO)NC(=O)[C@@H](NC(=O)[C@H](CC(=O)O)NC(=O)[C@H](CO)NC(=O)[C@@H](NC(=O)[C@H](Cc1ccccc1)NC(=O)[C@@H](NC(=O)CNC(=O)[C@H](CCC(=O)O)NC(=O)C(C)(C)NC(=O)[C@@H](N)Cc1c[nH]cn1)[C@@H](C)O)[C@@H](C)O)C(C)C)C(=O)N[C@@H](C)C(=O)N[C@@H](Cc1c[nH]c2ccccc12)C(=O)N[C@@H](CC(C)C)C(=O)N[C@H](C(=O)N[C@@H](CCCNC(=N)N)C(=O)NCC(=O)N[C@@H](CCCNC(=N)N)C(=O)N[C@@H](CCCCNC(=O)COCCOCCNC(=O)COCCOCCNC(=O)CC[C@H](NC(=O)CCCCCCCCCCCCCCCCC(=O)O)C(=O)O)C(=O)O)C(C)C [Example 27, N-epsilon37-[2-(2-{2-[2-(2-{2-[(S)-4-Carboxy-4-(17-carboxy-heptadecanoylamino)-butyrylamino]-ethoxy}-ethoxy)-acetylamino]-ethoxy}-ethoxy)-acetyl] [Aib8,Glu22,Arg26,Arg34,Lys37]GLP-1-(7-37)]
0.01	1500 to 2000	CCCCCCCCCCCCCCCC(=O)N[C@@H](CCC(=O)NCCOCCOCC(=O)NCCOCCOCC(=O)NCCCC[C@H](NC(=O)[C@H](Cc1ccc(O)cc1)NC(=O)[C@H](CO)NC(=O)[C@H](CO)NC(=O)[C@@H](NC(=O)[C@H](CC(=O)O)NC(=O)[C@H](CO)NC(=O)[C@@H](NC(=O)[C@H](Cc1ccccc1)NC(=O)[C@@H](NC(=O)CNC(=O)[C@H](CCC(=O)O)NC(=O)C(C)(C)NC(=O)[C@@H](N)Cc1c[nH]cn1)[C@@H](C)O)[C@@H](C)O)C(C)C)C(=O)N[C@@H](CCC(=O)O)C(=O)N[C@@H](CCC(=O)O)C(=O)N[C@@H](CCC(N)=O)C(=O)N[C@@H](C)C(=O)N[C@@H](C)C(=O)N[C@@H](CCCNC(=N)N)C(=O)N[C@@H](CCC(=O)O)C(=O)N[C@@H](Cc1ccccc1)C(=O)N[C@H](C(=O)N[C@@H](CCC(=O)O)C(=O)N[C@@H](Cc1c[nH]c2ccccc12)C(=O)N[C@@H](CC(C)C)C(=O)N[C@H](C(=O)N[C@@H](CCCCN)C(=O)NCC(=O)N[C@@H](CCCNC(=N)N)C(=O)N1CCC[C@H]1C(N)=O)C(C)C)[C@@H](C)CC)C(=O)O [Example 24, N-epsilon20-(2-{2-[2-(2-{2-[2-((S)-4-Carboxy-4-hexadecanoylamino-butyrylamino)ethoxy]ethoxy}acetylamino)ethoxy]ethoxy}-acetyl)[Aib8,Lys20,Glu22,Arg26,Glu30,Pro37]GLP-1-(7-37)amide] (H-H[Aib]EGTFTSDVSSYK([AEEA-AEEA-γGlu-Palmitoyl])EEQAAREFIEWLVKGRP-NH2)
